Assay results as given in PubChem BioAssay (NCI).
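GI50: concentration for 50% inhibition of growth. TGI: concentration producing complete growth inhibition.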

Assays:
Experiment in all cases: inhibition of tumour cell growth, NCI panel, 384-well format
786-0 renal = system: 786-0 renal
A498 renal = system: A498 renal
A549 NSCLC = system: A549 NSCLC
ACHN renal = system: ACHN renal
BT-549 breast = system: BT-549 breast
CAKI-1 renal = system: CAKI-1 renal
CCRF-CEM leukemia = system: CCRF-CEM leukemia
COLO 205 colon = system: COLO 205 colon
DU-145 prostate = system: DU-145 prostate
HCC-2998 colon = system: HCC-2998 colon
HCT-116 colon = system: HCT-116 colon
HCT-15 colon = system: HCT-15 colon
HL-60(TB) leukemia = system: HL-60(TB) leukemia
HOP-62 NSCLC = system: HOP-62 NSCLC
HOP-92 NSCLC = system: HOP-92 NSCLC
HT29 colon = system: HT29 colon
IGROV1 ovarian = system: IGROV1 ovarian
K-562 leukemia = system: K-562 leukemia
KM12 colon = system: KM12 colon
LOX IMVI melanoma = system: LOX IMVI melanoma
M14 melanoma = system: M14 melanoma
MALME-3M melanoma = system: MALME-3M melanoma
MCF7 breast = system: MCF7 breast
MDA-MB-231 breast = system: MDA-MB-231 breast
MDA-MB-435 melanoma = system: MDA-MB-435 melanoma
MDA-MB-468 breast = system: MDA-MB-468 breast
MOLT-4 leukemia = system: MOLT-4 leukemia
NCI-H226 lung = system: NCI-H226 lung
NCI-H23 lung = system: NCI-H23 lung
NCI-H322M lung = system: NCI-H322M lung
NCI-H460 NSCLC = system: NCI-H460 NSCLC
NCI-H522 lung = system: NCI-H522 lung
NCI/ADR-RES ovarian = system: NCI/ADR-RES ovarian
OVCAR-3 ovarian = system: OVCAR-3 ovarian
OVCAR-4 ovarian = system: OVCAR-4 ovarian
OVCAR-5 ovarian = system: OVCAR-5 ovarian
OVCAR-8 ovarian = system: OVCAR-8 ovarian
PC-3 prostate = system: PC-3 prostate
RPMI-8226 leukemia = system: RPMI-8226 leukemia
RXF 393 renal = system: RXF 393 renal
SF-268 CNS = system: SF-268 CNS
SF-295 CNS = system: SF-295 CNS
SF-539 CNS = system: SF-539 CNS
SK-MEL-2 melanoma = system: SK-MEL-2 melanoma
SK-MEL-28 melanoma = system: SK-MEL-28 melanoma
SK-MEL-5 melanoma = system: SK-MEL-5 melanoma
SK-OV-3 ovarian = system: SK-OV-3 ovarian
SN12C renal = system: SN12C renal
SNB-19 CNS = system: SNB-19 CNS
SR leukemia = system: SR leukemia
SW-620 colon = system: SW-620 colon
T-47D breast = system: T-47D breast
TK-10 renal = system: TK-10 renal
U251 glioblastoma = system: U251 glioblastoma
UACC-257 melanoma = system: UACC-257 melanoma
UACC-62 melanoma = system: UACC-62 melanoma
UO-31 renal = system: UO-31 renal
EKVX NSCLC = system: EKVX NSCLC
HS 578T breast = system: HS 578T breast
SNB-75 CNS = system: SNB-75 CNS

## COc1ccc([C@H](CC(=O)O)N2CCN(CCCc3ccc4c(n3)NCCC4)C2=O)cn1
786-0 renal
  GI50: 0.495 µM
  TGI: 24.9 µM
A498 renal
  GI50: 0.0192 µM
  TGI: 1.04 µM
A549 NSCLC
  GI50: 7.2 µM
  TGI: > 100 µM
ACHN renal
  GI50: 0.516 µM
  TGI: 52.3 µM
BT-549 breast
  GI50: 0.162 µM
  TGI: 0.564 µM
CAKI-1 renal
  GI50: 0.023 µM
  TGI: 0.132 µM
CCRF-CEM leukemia
  GI50: 34.7 µM
  TGI: > 100 µM
COLO 205 colon
  GI50: 36.8 µM
  TGI: > 100 µM
DU-145 prostate
  GI50: 1.13 µM
  TGI: > 100 µM
HCC-2998 colon
  GI50: 42.9 µM
  TGI: > 100 µM
HCT-116 colon
  GI50: 35.3 µM
  TGI: > 100 µM
HCT-15 colon
  GI50: 44.7 µM
  TGI: > 100 µM
HL-60(TB) leukemia
  GI50: > 100 µM
  TGI: > 100 µM
HOP-62 NSCLC
  GI50: 1.24 µM
  TGI: 21.7 µM
HOP-92 NSCLC
  GI50: 0.166 µM
  TGI: 0.933 µM
HT29 colon
  GI50: 32.5 µM
  TGI: > 100 µM
IGROV1 ovarian
  GI50: 0.914 µM
  TGI: 15.9 µM
K-562 leukemia
  GI50: 65.8 µM
  TGI: > 100 µM
KM12 colon
  GI50: 55.7 µM
  TGI: > 100 µM
LOX IMVI melanoma
  GI50: 21.1 µM
  TGI: 67.1 µM
M14 melanoma
  GI50: 40.6 µM
  TGI: > 100 µM
MALME-3M melanoma
  GI50: 25.4 µM
  TGI: > 100 µM
MCF7 breast
  GI50: 30.6 µM
  TGI: > 100 µM
MDA-MB-231 breast
  GI50: 1.73 µM
  TGI: 78.3 µM
MDA-MB-435 melanoma
  GI50: 96.3 µM
  TGI: > 100 µM
MDA-MB-468 breast
  GI50: 23.3 µM
  TGI: 68.8 µM
MOLT-4 leukemia
  GI50: 21.5 µM
  TGI: 66.3 µM
NCI-H226 lung
  GI50: 1.61 µM
  TGI: 42.6 µM
NCI-H23 lung
  GI50: > 100 µM
  TGI: > 100 µM
NCI-H322M lung
  GI50: 52.6 µM
  TGI: > 100 µM
NCI-H460 NSCLC
  GI50: 20.3 µM
  TGI: > 100 µM
NCI-H522 lung
  GI50: 0.151 µM
  TGI: 14.6 µM
NCI/ADR-RES ovarian
  GI50: > 100 µM
  TGI: > 100 µM
OVCAR-3 ovarian
  GI50: 13.3 µM
  TGI: > 100 µM
OVCAR-4 ovarian
  GI50: 0.0228 µM
  TGI: 15.2 µM
OVCAR-5 ovarian
  GI50: 0.0927 µM
  TGI: 62.9 µM
OVCAR-8 ovarian
  GI50: 11.7 µM
  TGI: > 100 µM
PC-3 prostate
  GI50: 29.1 µM
  TGI: > 100 µM
RPMI-8226 leukemia
  GI50: 7.91 µM
  TGI: 21.1 µM
RXF 393 renal
  TGI: 0.0412 µM
SF-268 CNS
  GI50: 0.336 µM
  TGI: 28.1 µM
SF-295 CNS
  GI50: 41.1 µM
  TGI: > 100 µM
SF-539 CNS
  GI50: 10.1 µM
  TGI: 49.2 µM
SK-MEL-2 melanoma
  GI50: 0.0476 µM
  TGI: > 100 µM
SK-MEL-28 melanoma
  GI50: 44.5 µM
  TGI: > 100 µM
SK-MEL-5 melanoma
  GI50: 83.8 µM
  TGI: > 100 µM
SK-OV-3 ovarian
  GI50: 3.35 µM
  TGI: 65.4 µM
SN12C renal
  GI50: 36.7 µM
  TGI: > 100 µM
SNB-19 CNS
  GI50: 0.302 µM
  TGI: > 100 µM
SR leukemia
  GI50: 31.5 µM
  TGI: 86.5 µM
SW-620 colon
  GI50: 88.2 µM
  TGI: > 100 µM
T-47D breast
  GI50: 14.2 µM
  TGI: 51 µM
TK-10 renal
  GI50: 0.0253 µM
  TGI: 0.13 µM
U251 glioblastoma
  GI50: 0.561 µM
  TGI: > 100 µM
UACC-257 melanoma
  GI50: 44.7 µM
  TGI: > 100 µM
UACC-62 melanoma
  GI50: 38 µM
  TGI: > 100 µM
UO-31 renal
  GI50: 1.29 µM
  TGI: 8.86 µM

## c1ccc(-c2nn3c(c2-c2ccnc4cc(OCCN5CCOCC5)ccc24)CCC3)nc1
786-0 renal
  GI50: > 100 µM
  TGI: > 100 µM
A498 renal
  GI50: > 100 µM
  TGI: > 100 µM
A549 NSCLC
  GI50: 29.9 µM
  TGI: > 100 µM
ACHN renal
  GI50: 66.9 µM
  TGI: > 100 µM
BT-549 breast
  GI50: > 100 µM
  TGI: > 100 µM
CAKI-1 renal
  GI50: 62.4 µM
  TGI: > 100 µM
CCRF-CEM leukemia
  GI50: 39.3 µM
  TGI: > 100 µM
COLO 205 colon
  GI50: 37.9 µM
  TGI: > 100 µM
DU-145 prostate
  GI50: > 100 µM
  TGI: > 100 µM
EKVX NSCLC
  GI50: > 100 µM
  TGI: > 100 µM
HCC-2998 colon
  GI50: > 100 µM
  TGI: > 100 µM
HCT-15 colon
  GI50: 37.3 µM
  TGI: > 100 µM
HL-60(TB) leukemia
  GI50: > 100 µM
  TGI: > 100 µM
HOP-62 NSCLC
  GI50: > 100 µM
  TGI: > 100 µM
HOP-92 NSCLC
  GI50: 85.6 µM
  TGI: > 100 µM
HS 578T breast
  GI50: > 100 µM
  TGI: > 100 µM
HT29 colon
  GI50: 48.2 µM
  TGI: > 100 µM
IGROV1 ovarian
  GI50: > 100 µM
  TGI: > 100 µM
K-562 leukemia
  GI50: 23.4 µM
  TGI: > 100 µM
KM12 colon
  GI50: 85.1 µM
  TGI: > 100 µM
LOX IMVI melanoma
  GI50: > 100 µM
  TGI: > 100 µM
M14 melanoma
  GI50: > 100 µM
  TGI: > 100 µM
MALME-3M melanoma
  GI50: > 100 µM
  TGI: > 100 µM
MCF7 breast
  GI50: 24.9 µM
  TGI: > 100 µM
MDA-MB-231 breast
  GI50: > 100 µM
  TGI: > 100 µM
MDA-MB-435 melanoma
  GI50: > 100 µM
  TGI: > 100 µM
MDA-MB-468 breast
  GI50: 40.3 µM
  TGI: > 100 µM
MOLT-4 leukemia
  GI50: 4.62 µM
  TGI: 17.4 µM
NCI-H226 lung
  GI50: > 100 µM
  TGI: > 100 µM
NCI-H23 lung
  GI50: > 100 µM
  TGI: > 100 µM
NCI-H322M lung
  GI50: > 100 µM
  TGI: > 100 µM
NCI-H460 NSCLC
  GI50: 51.3 µM
  TGI: > 100 µM
NCI-H522 lung
  GI50: 58.2 µM
  TGI: > 100 µM
NCI/ADR-RES ovarian
  GI50: > 100 µM
  TGI: > 100 µM
OVCAR-3 ovarian
  GI50: > 100 µM
  TGI: > 100 µM
OVCAR-4 ovarian
  GI50: > 100 µM
  TGI: > 100 µM
OVCAR-5 ovarian
  GI50: > 100 µM
  TGI: > 100 µM
OVCAR-8 ovarian
  GI50: > 100 µM
  TGI: > 100 µM
PC-3 prostate
  GI50: > 100 µM
  TGI: > 100 µM
RPMI-8226 leukemia
  GI50: 48 µM
  TGI: > 100 µM
RXF 393 renal
  GI50: > 100 µM
  TGI: > 100 µM
SF-268 CNS
  GI50: > 100 µM
  TGI: > 100 µM
SF-295 CNS
  GI50: > 100 µM
  TGI: > 100 µM
SF-539 CNS
  GI50: > 100 µM
  TGI: > 100 µM
SK-MEL-28 melanoma
  GI50: > 100 µM
  TGI: > 100 µM
SK-MEL-5 melanoma
  GI50: 16.2 µM
  TGI: > 100 µM
SK-OV-3 ovarian
  GI50: > 100 µM
  TGI: > 100 µM
SN12C renal
  GI50: > 100 µM
  TGI: > 100 µM
SNB-19 CNS
  GI50: > 100 µM
  TGI: > 100 µM
SNB-75 CNS
  GI50: > 100 µM
  TGI: > 100 µM
SR leukemia
  GI50: 40.3 µM
  TGI: > 100 µM
SW-620 colon
  GI50: > 100 µM
  TGI: > 100 µM
T-47D breast
  GI50: > 100 µM
  TGI: > 100 µM
TK-10 renal
  GI50: > 100 µM
  TGI: > 100 µM
U251 glioblastoma
  GI50: > 100 µM
  TGI: > 100 µM
UACC-257 melanoma
  GI50: > 100 µM
  TGI: > 100 µM
UACC-62 melanoma
  GI50: > 100 µM
  TGI: > 100 µM
UO-31 renal
  GI50: > 100 µM
  TGI: > 100 µM
